{"source": "ChEMBL document CHEMBL5375952", "about": "“Discovery of Novel 8-Hydroxyquinoline Derivatives with Potent In Vitro and In Vivo Antifungal Activity” (J Med Chem, 2023)", "key": {"Candida albicans [1]": {"tested_on": "Candida albicans", "test": "Synergistic antifungal activity against FLC-resistant Candida albicans 10 assessed as fungal growth inhibition incubated for 48 hrs in presence of FLC by broth microdilution method", "assay_type": "functional"}, "Candida albicans [2]": {"tested_on": "Candida albicans", "test": "Synergistic antifungal activity against FLC-resistant Candida albicans 241 assessed as MIC of FLC incubated for 48 hrs by broth microdilution method", "assay_type": "functional"}, "Candida albicans [3]": {"tested_on": "Candida albicans", "test": "Synergistic antifungal activity against FLC-resistant Candida albicans 14 assessed as fractional inhibitory concentration index incubated for 48 hrs in presence of FLC by broth microdilution method", "assay_type": "functional"}, "Candida albicans [4]": {"tested_on": "Candida albicans", "test": "Synergistic antifungal activity against FLC-resistant Candida albicans 14 assessed as MIC of FLC incubated for 48 hrs by broth microdilution method", "assay_type": "functional"}, "Candida albicans [5]": {"tested_on": "Candida albicans", "test": "Synergistic antifungal activity against FLC-resistant Candida albicans 538 assessed as fungal growth inhibition incubated for 48 hrs in presence of FLC by broth microdilution method", "assay_type": "functional"}, "Candida albicans [6]": {"tested_on": "Candida albicans", "test": "Synergistic antifungal activity against Candida albicans 0304103 assessed as reduction in fungal growth at 8 ug/ml incubated for 48 hrs in presence of FLC by time-kill assay", "assay_type": "functional", "settings": "dose 8 µg/ml"}, "Candida albicans [7]": {"tested_on": "Candida albicans", "test": "Synergistic antifungal activity against FLC-resistant Candida albicans 5740 assessed as fractional inhibitory concentration index incubated for 48 hrs in presence of FLC by broth microdilution method", "assay_type": "functional"}, "Candida albicans [8]": {"tested_on": "Candida albicans", "test": "Synergistic antifungal activity against FLC-resistant Candida albicans 305 assessed as MIC of FLC incubated for 48 hrs by broth microdilution method", "assay_type": "functional"}, "[9]": {"test": "C0 in Sprague-Dawley rat at 2 mg/kg, iv by LC-MS/MS analysis", "assay_type": "ADME, organism-based", "settings": "in vivo"}, "Candida albicans [10]": {"tested_on": "Candida albicans", "test": "Synergistic antifungal activity against FLC-resistant Candida albicans 304103 assessed as fungal growth inhibition incubated for 48 hrs in presence of FLC by broth microdilution method", "assay_type": "functional"}, "Candida albicans [11]": {"tested_on": "Candida albicans", "test": "Synergistic antifungal activity against FLC-resistant Candida albicans 710506 assessed as MIC of FLC incubated for 48 hrs by broth microdilution method", "assay_type": "functional"}, "Candida albicans [12]": {"tested_on": "Candida albicans", "test": "Synergistic antifungal activity against FLC-resistant Candida albicans 512681 assessed as fungal growth inhibition incubated for 48 hrs in presence of FLC by broth microdilution method", "assay_type": "functional"}, "Candida albicans [13]": {"tested_on": "Candida albicans", "test": "Synergistic antifungal activity against FLC-resistant Candida albicans 646 assessed as fractional inhibitory concentration index incubated for 48 hrs in presence of FLC by broth microdilution method", "assay_type": "functional"}, "[14]": {"test": "MRT (0 to t) in Sprague-Dawley rat at 5 mg/kg, po by LC-MS/MS analysis", "assay_type": "ADME, organism-based", "settings": "in vivo"}, "Candida albicans [15]": {"tested_on": "Candida albicans", "test": "Synergistic antifungal activity against FLC-resistant Candida albicans 512681 assessed as MIC of FLC incubated for 48 hrs by broth microdilution method", "assay_type": "functional"}, "Candida albicans [16]": {"tested_on": "Candida albicans", "test": "Synergistic antifungal activity against FLC-resistant Candida albicans 395 assessed as MIC of FLC incubated for 48 hrs by broth microdilution method", "assay_type": "functional"}, "Candida albicans [17]": {"tested_on": "Candida albicans", "test": "Antifungal activity against Candida albicans SC5314 infected in C57BL/6 mouse assessed as mean fungal burden at 2 mg/kg, ip measured after 46 hrs in presence of FLC by plate count method (reference value: 6.902 log10CFU/ml)", "assay_type": "functional"}, "Candida albicans [18]": {"tested_on": "Candida albicans", "test": "Synergistic antifungal activity against FLC-resistant Candida albicans 819 assessed as fractional inhibitory concentration index incubated for 48 hrs in presence of FLC by broth microdilution method", "assay_type": "functional"}, "Candida albicans [19]": {"tested_on": "Candida albicans", "test": "Synergistic antifungal activity against FLC-resistant Candida albicans 710554 assessed as MIC of FLC incubated for 48 hrs by broth microdilution method", "assay_type": "functional"}, "Candida albicans [20]": {"tested_on": "Candida albicans", "test": "Synergistic antifungal activity against FLC-resistant Candida albicans 953 assessed as MIC of FLC incubated for 48 hrs by broth microdilution method", "assay_type": "functional"}, "Candida albicans [21]": {"tested_on": "Candida albicans", "test": "Synergistic antifungal activity against FLC-resistant Candida albicans 710554 assessed as fractional inhibitory concentration index incubated for 48 hrs in presence of FLC by broth microdilution method", "assay_type": "functional"}, "Candida albicans [22]": {"tested_on": "Candida albicans", "test": "Synergistic antifungal activity against FLC-resistant Candida albicans 17 assessed as fungal growth inhibition incubated for 48 hrs in presence of FLC by broth microdilution method", "assay_type": "functional"}, "[23]": {"test": "Half life in Sprague-Dawley rat at 2 mg/kg, iv by LC-MS/MS analysis", "assay_type": "ADME, organism-based", "settings": "in vivo"}, "Candida albicans [24]": {"tested_on": "Candida albicans", "test": "Synergistic antifungal activity against Candida albicans 0304103 assessed as fungal growth inhibition at 4 ug/ml incubated for 48 hrs in presence of FLC by time-kill assay", "assay_type": "functional, organism-based", "settings": "dose 4.0 µg/ml"}, "Candida albicans [25]": {"tested_on": "Candida albicans", "test": "Synergistic antifungal activity against FLC-resistant Candida albicans 605141 assessed as fractional inhibitory concentration index incubated for 48 hrs in presence of FLC by broth microdilution method", "assay_type": "functional"}, "Candida albicans [26]": {"tested_on": "Candida albicans", "test": "Inhibition of biofilm formation of Candida albicans SC5314 at 4 ug/ml incubated for 24 hrs by XTT assay relative to control", "assay_type": "functional"}, "[27]": {"molecular_target": "Voltage-gated inwardly rectifying potassium channel KCNH2 (Homo sapiens, UniProt Q12809)", "sequence (Q12809 whole entry)": "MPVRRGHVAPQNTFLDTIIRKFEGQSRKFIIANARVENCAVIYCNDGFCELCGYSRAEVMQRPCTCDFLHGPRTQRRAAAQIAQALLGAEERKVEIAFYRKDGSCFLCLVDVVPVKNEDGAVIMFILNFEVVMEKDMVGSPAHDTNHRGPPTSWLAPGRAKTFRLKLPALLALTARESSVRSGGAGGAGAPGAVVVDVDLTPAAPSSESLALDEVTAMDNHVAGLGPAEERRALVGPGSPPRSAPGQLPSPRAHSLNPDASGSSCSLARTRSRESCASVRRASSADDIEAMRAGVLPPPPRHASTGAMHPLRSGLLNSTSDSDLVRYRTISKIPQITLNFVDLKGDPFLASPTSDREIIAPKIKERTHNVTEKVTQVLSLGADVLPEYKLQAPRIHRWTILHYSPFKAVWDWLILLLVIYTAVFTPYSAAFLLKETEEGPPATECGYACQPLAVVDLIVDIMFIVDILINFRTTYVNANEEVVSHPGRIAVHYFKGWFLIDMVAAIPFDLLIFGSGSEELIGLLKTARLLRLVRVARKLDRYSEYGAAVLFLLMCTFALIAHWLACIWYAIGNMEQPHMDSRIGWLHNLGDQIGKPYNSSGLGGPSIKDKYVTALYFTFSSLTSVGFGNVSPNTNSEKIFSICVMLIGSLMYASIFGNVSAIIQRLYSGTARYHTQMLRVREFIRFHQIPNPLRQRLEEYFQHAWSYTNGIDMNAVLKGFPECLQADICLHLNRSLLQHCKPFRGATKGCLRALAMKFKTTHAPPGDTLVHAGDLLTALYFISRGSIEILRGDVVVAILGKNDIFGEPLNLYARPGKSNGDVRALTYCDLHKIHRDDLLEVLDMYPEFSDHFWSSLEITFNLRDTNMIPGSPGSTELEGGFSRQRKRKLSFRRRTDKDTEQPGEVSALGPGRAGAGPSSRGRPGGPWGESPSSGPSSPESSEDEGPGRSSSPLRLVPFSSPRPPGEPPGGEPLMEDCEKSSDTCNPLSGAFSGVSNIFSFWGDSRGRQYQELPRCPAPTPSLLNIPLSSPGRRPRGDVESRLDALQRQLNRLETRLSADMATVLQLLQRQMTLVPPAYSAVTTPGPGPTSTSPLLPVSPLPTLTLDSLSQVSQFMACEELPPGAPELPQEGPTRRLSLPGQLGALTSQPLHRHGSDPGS", "test": "Inhibition of hERG measured for 120 secs by electrophysiological method", "assay_type": "toxicity", "settings": "2 min, time 120 sec"}, "[28]": {"test": "AUC (0 to infinity) in Sprague-Dawley rat at 5 mg/kg, po by LC-MS/MS analysis", "assay_type": "ADME, organism-based", "design": "dose 5 mg/kg, route po", "settings": "in vivo"}, "Candida albicans [29]": {"tested_on": "Candida albicans", "test": "Synergistic antifungal activity against FLC-resistant Candida albicans 249 assessed as MIC of FLC incubated for 48 hrs by broth microdilution method", "assay_type": "functional"}, "[30]": {"test": "Toxicity in C57BL/6 mouse infected with Candida albicans SC5314 assessed as animal survival at 2 mg/kg, ip measured after 20 days in presence of FLC relative to control", "assay_type": "organism-based", "settings": "in vivo, 480 h, time 20 day"}, "Candida albicans [31]": {"tested_on": "Candida albicans", "test": "Synergistic inhibition of biofilm formation of Candida albicans SC5314 at 2 ug/ml incubated for 24 hrs in presence of 0.0625 ug/ml of FLC by XTT assay relative to control", "assay_type": "functional"}, "Candida albicans [32]": {"tested_on": "Candida albicans", "test": "Synergistic antifungal activity against FLC-resistant Candida albicans 1221 assessed as MIC of FLC incubated for 48 hrs by broth microdilution method", "assay_type": "functional"}, "Candida albicans [33]": {"tested_on": "Candida albicans", "test": "Synergistic antifungal activity against FLC-resistant Candida albicans 538 assessed as fractional inhibitory concentration index incubated for 48 hrs in presence of FLC by broth microdilution method", "assay_type": "functional"}, "Candida albicans [34]": {"tested_on": "Candida albicans", "test": "Synergistic antifungal activity against FLC-resistant Candida albicans 5740 assessed as MIC of FLC incubated for 48 hrs by broth microdilution method", "assay_type": "functional"}, "Candida albicans [35]": {"tested_on": "Candida albicans", "test": "Synergistic antifungal activity against FLC-resistant Candida albicans 710419 assessed as MIC of FLC incubated for 48 hrs by broth microdilution method", "assay_type": "functional"}, "Candida albicans [36]": {"tested_on": "Candida albicans", "test": "Synergistic antifungal activity against FLC-resistant Candida albicans 11 assessed as MIC of FLC incubated for 48 hrs by broth microdilution method", "assay_type": "functional"}, "Candida albicans [37]": {"tested_on": "Candida albicans", "test": "Synergistic antifungal activity against FLC-resistant Candida albicans 241 assessed as fungal growth inhibition incubated for 48 hrs in presence of FLC by broth microdilution method", "assay_type": "functional"}, "Candida albicans [38]": {"tested_on": "Candida albicans", "test": "Synergistic antifungal activity against FLC-resistant Candida albicans 605141 assessed as MIC of FLC incubated for 48 hrs by broth microdilution method", "assay_type": "functional"}, "[39]": {"test": "MRT (0 to t) in Sprague-Dawley rat at 2 mg/kg, iv by LC-MS/MS analysis", "assay_type": "ADME, organism-based", "settings": "in vivo"}, "Candida albicans [40]": {"tested_on": "Candida albicans", "test": "Inhibition of biofilm formation of Candida albicans SC5314 incubated for 24 hrs by XTT assay", "assay_type": "functional, organism-based", "settings": "dose <= 16.0 µg/ml"}}, "note": "Calls of active or inactive are those of the source. The calls are words filed in the database; no cut-off is given here.", "data": [{"compound": "CCN(CC)c1ccc(C(NC(=O)C(C)C)c2ccc3cccnc3c2O)cc1", "note": "(stereo not given)", "values": [{"measurement": "MIC", "setting": "Candida albicans [1]", "value": 0.008, "unit": "µg/mL"}, {"measurement": "MIC", "setting": "Candida albicans [2]", "value": 1, "unit": "µg/mL"}, {"measurement": "fractional inhibitory concentration index (FICI)", "setting": "Candida albicans [3]", "value": 0.133}, {"measurement": "MIC", "setting": "Candida albicans [4]", "value": 0.25, "unit": "µg/mL"}, {"measurement": "MIC", "setting": "Candida albicans [5]", "value": 0.008, "unit": "µg/mL"}, {"measurement": "Activity", "setting": "Candida albicans [6]", "value": ">3", "unit": "log10CFU/ml"}, {"measurement": "fractional inhibitory concentration index (FICI)", "setting": "Candida albicans [7]", "value": 0.312}, {"measurement": "MIC", "setting": "Candida albicans [8]", "value": 1, "unit": "µg/mL"}, {"measurement": "C0", "setting": "[9]", "value": 2460, "unit": "ng/mL"}, {"measurement": "MIC", "setting": "Candida albicans [10]", "value": 0.008, "unit": "µg/mL"}, {"measurement": "MIC", "setting": "Candida albicans [11]", "value": 0.5, "unit": "µg/mL"}, {"measurement": "MIC", "setting": "Candida albicans [12]", "value": 0.031, "unit": "µg/mL"}, {"measurement": "fractional inhibitory concentration index (FICI)", "setting": "Candida albicans [13]", "value": 0.133}, {"measurement": "MRT last", "setting": "[14]", "value": 0.813, "unit": "h"}, {"measurement": "MIC", "setting": "Candida albicans [15]", "value": 0.25, "unit": "µg/mL"}, {"measurement": "MIC", "setting": "Candida albicans [16]", "value": 0.25, "unit": "µg/mL"}, {"measurement": "Activity", "setting": "Candida albicans [17]", "value": 5.244, "unit": "log10CFU/ml"}, {"measurement": "fractional inhibitory concentration index (FICI)", "setting": "Candida albicans [18]", "value": 0.133}, {"measurement": "MIC", "setting": "Candida albicans [19]", "value": 0.5, "unit": "µg/mL"}, {"measurement": "MIC", "setting": "Candida albicans [20]", "value": 0.125, "unit": "µg/mL"}, {"measurement": "fractional inhibitory concentration index (FICI)", "setting": "Candida albicans [21]", "value": 0.066}, {"measurement": "MIC", "setting": "Candida albicans [22]", "value": 0.016, "unit": "µg/mL"}, {"measurement": "half-life", "setting": "[23]", "value": 5.28, "unit": "h"}, {"measurement": "growth inhibition (GI)", "setting": "Candida albicans [24]", "value": "Active"}, {"measurement": "fractional inhibitory concentration index (FICI)", "setting": "Candida albicans [25]", "value": 0.063}, {"measurement": "inhibition at 4 µg/mL", "setting": "Candida albicans [26]", "value": 7.44, "unit": "%"}, {"measurement": "INH", "setting": "[27]", "value": "> 50", "unit": "µM"}, {"measurement": "AUC(0-inf)", "setting": "[28]", "value": 158, "unit": "ng·h/mL"}, {"measurement": "MIC", "setting": "Candida albicans [29]", "value": 0.125, "unit": "µg/mL"}, {"measurement": "Survival", "setting": "[30]", "value": 20, "unit": "%"}, {"measurement": "inhibition at 2 µg/mL", "setting": "Candida albicans [31]", "value": 15.6, "unit": "%"}, {"measurement": "MIC", "setting": "Candida albicans [32]", "value": 0.125, "unit": "µg/mL"}, {"measurement": "fractional inhibitory concentration index (FICI)", "setting": "Candida albicans [33]", "value": 0.047}, {"measurement": "MIC", "setting": "Candida albicans [34]", "value": 2, "unit": "µg/mL"}, {"measurement": "MIC", "setting": "Candida albicans [35]", "value": 0.25, "unit": "µg/mL"}, {"measurement": "MIC", "setting": "Candida albicans [36]", "value": 0.25, "unit": "µg/mL"}, {"measurement": "MIC", "setting": "Candida albicans [37]", "value": 0.016, "unit": "µg/mL"}, {"measurement": "MIC", "setting": "Candida albicans [38]", "value": 0.125, "unit": "µg/mL"}, {"measurement": "MRT last", "setting": "[39]", "value": 2.05, "unit": "h"}]}, {"compound": "OC(Cn1cncn1)(Cn1cncn1)c1ccc(F)cc1F", "note": "[FLUCONAZOLE]", "values": [{"measurement": "inhibition", "setting": "Candida albicans [40]", "value": "Dose-Dependent Effect"}]}]}
